Consider four compounds from ChEMBL document CHEMBL3608213, “Inhibitors of the Epidermal Growth Factor Receptor (EGFR) May Provide Effective Treatment for Lung Adenocarcinoma” (ACS Med Chem Lett, 2015).

SMILES strings stand for the structures.

The target of assay [1] is Epidermal growth factor receptor (Homo sapiens, UniProt P00533, E746-A750DEL). Put plainly: Inhibition of EGFR E746-A750 deletion mutant in human PC9 cells assessed as inhibition of phosphorylation at Y1068 after 2 hrs by sandwich ELISA method. The assay is classed as cell-based, PC-9.
Chain of Epidermal growth factor receptor (Homo sapiens, UniProt P00533, E746-A750DEL) (P00533 whole entry E746-A750del, looked up): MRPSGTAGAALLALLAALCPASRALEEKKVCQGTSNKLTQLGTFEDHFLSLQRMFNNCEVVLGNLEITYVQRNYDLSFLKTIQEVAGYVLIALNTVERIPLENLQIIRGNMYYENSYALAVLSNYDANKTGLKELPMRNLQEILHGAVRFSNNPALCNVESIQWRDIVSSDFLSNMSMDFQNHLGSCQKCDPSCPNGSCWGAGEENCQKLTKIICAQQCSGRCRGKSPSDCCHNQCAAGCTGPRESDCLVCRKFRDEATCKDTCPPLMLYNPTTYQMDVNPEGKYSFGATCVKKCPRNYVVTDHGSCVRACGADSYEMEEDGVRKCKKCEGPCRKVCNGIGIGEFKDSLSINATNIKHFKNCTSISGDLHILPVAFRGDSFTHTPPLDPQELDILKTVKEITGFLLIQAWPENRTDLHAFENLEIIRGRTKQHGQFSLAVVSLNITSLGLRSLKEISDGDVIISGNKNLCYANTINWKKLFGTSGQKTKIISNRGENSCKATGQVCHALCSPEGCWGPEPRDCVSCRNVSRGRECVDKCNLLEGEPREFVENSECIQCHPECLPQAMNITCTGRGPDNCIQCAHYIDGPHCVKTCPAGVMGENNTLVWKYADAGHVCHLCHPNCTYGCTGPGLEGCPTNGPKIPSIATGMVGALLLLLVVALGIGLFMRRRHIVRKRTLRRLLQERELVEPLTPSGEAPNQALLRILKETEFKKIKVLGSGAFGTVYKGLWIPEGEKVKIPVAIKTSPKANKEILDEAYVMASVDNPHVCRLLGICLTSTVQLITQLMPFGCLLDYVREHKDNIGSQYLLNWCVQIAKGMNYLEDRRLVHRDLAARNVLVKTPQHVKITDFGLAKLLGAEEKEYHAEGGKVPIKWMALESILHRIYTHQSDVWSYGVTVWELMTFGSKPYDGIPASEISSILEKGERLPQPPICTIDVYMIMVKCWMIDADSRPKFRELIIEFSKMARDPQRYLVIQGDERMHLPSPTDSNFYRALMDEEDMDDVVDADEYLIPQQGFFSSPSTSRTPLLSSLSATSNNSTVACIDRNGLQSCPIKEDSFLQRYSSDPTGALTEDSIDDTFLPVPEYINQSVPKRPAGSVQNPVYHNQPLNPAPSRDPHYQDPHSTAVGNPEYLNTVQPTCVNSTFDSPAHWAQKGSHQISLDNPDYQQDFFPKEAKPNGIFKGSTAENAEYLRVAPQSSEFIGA
In assay [2] the target is T1, Epidermal growth factor receptor (Homo sapiens, UniProt P00533). Put plainly: Inhibition of EGFR deletion/T790M mutant in human PC9-DRH cells assessed as inhibition of phosphorylation at Y1068 after 2 hrs by sandwich ELISA method. The class given is cell-based.
Target sequence in this assay (P00533 25-1210 limits assumed, stated change not applied): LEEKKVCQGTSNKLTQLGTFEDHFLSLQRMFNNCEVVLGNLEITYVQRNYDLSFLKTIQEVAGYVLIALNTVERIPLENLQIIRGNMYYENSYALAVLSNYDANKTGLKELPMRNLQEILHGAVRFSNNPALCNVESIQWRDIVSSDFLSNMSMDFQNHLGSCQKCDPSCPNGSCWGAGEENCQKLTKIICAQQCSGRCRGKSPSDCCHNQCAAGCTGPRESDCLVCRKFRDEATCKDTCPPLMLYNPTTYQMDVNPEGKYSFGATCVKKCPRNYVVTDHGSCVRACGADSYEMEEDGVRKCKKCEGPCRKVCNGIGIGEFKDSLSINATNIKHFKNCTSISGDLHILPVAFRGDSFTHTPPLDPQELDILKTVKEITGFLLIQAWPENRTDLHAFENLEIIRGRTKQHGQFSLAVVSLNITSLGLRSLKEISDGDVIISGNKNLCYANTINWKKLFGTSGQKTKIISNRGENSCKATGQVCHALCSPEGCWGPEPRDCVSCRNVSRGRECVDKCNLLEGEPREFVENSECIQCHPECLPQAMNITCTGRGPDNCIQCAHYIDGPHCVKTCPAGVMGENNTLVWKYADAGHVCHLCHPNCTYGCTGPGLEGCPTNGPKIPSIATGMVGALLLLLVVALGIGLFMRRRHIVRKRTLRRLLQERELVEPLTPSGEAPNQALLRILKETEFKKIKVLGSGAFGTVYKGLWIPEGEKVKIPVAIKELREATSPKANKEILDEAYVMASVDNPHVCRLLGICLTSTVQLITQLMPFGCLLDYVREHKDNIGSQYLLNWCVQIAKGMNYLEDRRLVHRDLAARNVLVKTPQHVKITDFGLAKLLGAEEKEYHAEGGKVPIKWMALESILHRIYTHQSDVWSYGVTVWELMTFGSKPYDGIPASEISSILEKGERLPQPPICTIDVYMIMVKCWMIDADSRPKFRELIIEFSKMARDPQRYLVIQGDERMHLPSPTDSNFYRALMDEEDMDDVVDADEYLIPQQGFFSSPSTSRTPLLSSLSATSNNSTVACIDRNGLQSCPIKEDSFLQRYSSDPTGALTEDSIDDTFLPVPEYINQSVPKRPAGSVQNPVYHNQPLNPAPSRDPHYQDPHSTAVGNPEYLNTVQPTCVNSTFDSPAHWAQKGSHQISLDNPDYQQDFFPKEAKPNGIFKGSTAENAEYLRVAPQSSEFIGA
The target of assay [3] is T1, Epidermal growth factor receptor. Put plainly: Inhibition of wild type EGFR in human A549 cells assessed as inhibition of phosphorylation at Y1068 after 2 hrs by sandwich ELISA method. The class given is cell-based.
Target sequence in this assay (P00533 whole entry): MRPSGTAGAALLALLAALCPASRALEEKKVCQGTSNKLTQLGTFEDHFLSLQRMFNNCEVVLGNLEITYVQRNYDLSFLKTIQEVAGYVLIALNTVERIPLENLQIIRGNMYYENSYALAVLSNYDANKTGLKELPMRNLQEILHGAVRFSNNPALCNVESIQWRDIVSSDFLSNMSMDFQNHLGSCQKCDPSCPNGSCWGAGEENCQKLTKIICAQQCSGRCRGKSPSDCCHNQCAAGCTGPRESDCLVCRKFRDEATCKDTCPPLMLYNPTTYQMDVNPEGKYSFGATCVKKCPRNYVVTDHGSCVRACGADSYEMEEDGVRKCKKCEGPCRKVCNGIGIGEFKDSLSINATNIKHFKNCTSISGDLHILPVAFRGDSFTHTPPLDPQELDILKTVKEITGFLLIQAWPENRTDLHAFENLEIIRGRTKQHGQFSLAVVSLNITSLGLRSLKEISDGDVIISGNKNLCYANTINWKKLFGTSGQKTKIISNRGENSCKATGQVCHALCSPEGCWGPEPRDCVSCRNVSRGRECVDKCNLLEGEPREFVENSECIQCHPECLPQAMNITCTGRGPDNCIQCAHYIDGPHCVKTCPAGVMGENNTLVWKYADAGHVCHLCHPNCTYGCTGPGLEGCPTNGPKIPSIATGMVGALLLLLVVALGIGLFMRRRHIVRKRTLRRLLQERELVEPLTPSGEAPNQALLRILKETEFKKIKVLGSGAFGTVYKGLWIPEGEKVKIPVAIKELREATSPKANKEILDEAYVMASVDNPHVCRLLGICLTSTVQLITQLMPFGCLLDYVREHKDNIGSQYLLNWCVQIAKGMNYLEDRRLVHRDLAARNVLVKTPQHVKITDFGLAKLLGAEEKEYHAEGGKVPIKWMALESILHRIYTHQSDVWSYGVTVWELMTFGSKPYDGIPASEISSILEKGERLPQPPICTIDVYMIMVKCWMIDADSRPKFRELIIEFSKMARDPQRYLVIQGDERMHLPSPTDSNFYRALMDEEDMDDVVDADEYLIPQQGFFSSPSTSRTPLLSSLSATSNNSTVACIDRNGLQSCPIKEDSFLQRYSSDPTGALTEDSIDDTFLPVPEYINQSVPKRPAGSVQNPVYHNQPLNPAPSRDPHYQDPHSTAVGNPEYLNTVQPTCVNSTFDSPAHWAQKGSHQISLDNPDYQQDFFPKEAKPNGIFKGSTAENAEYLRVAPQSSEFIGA

With `C=CC(=O)N[C@H]1CCN(c2nc(Nc3ccc(N4CCN(C)CC4)cc3)c3ncn(CCO)c3n2)C1`, the half-inhibitory concentration (IC50) in assay [1] was 31 nM.

`C=CC(=O)N1C[C@@H]2CN(c3nc(Nc4ccc(N5CCN(C)CC5)cc4)c4ncn(C(C)C)c4n3)C[C@@H]2C1`: the IC50 in assay [2] was 18 nM; in assay [1], 8 nM.

Regarding `C=CC(=O)N[C@@H]1CN(c2nc(Nc3cn(C)nc3C)c3ncn(C(C)C)c3n2)C[C@H]1F`, the IC50 stood at 10000 nM in assay [3], 2130 nM in assay [2] and 6650 nM in assay [1].

`C=CC(=O)N[C@@H]1CN(c2nc(Nc3cn(CC)nc3OC)c3ncn(C)c3n2)C[C@H]1F`: the half-maximal inhibitory concentration (IC50) in assay [2] turned out to be 1 nM; in assay [1] it was 6 nM.
